The text below walks through data of patent US8466311B2, “Neuroprotective compositions and methods” (Sanford-Burnham Medical Research Institute, priority 2006, dated 2013).

Structures are written as SMILES.

One experiment concerns ARE. The experiment in a line: ARE(GSTYa)-luciferase reporter in PC12h cells. The format is cell-based. Here is the method: (1) pGL3-GSTYa ARE core-luciferase vector. […] The dsDNA thus obtained was inserted into the Mlu l and Bglll sites of the pGL3-promoter vector (Promega Co., Madison, Wis.).
Transient transfection and measurement of luciferase activity. PC12h cells or cerebrocortical cultures (E17, DIV21) were incubated for 5 h in EBSS containing 1 μg of a plasmid DNA plus Lipofectamine 2000 (Invitrogen, Carlsbad, Calif.). Transfection efficiency was normalized to β-galactosidase activity expressed by co-transfection with pSV-β-gal (Promega). For reporter gene assays, cells were transfected with 1 μg of the reporter construct [ARE(GSTYa)-luciferase] and 0.2 μg pSV-β-gal for 1 hour. […] Firefly luciferase activity and β-galactosidase activity in cell lysates were measured using a Luciferase System and β-Galactosidase Enzyme Assay System, respectively (Promega, Madison, Wis.).
Next, we examined the involvement of the Keap1/Nrf2 pathway more precisely by studying activation of the ARE. This transcription element responds to the Keap1/Nrf2 pathway; we monitored activation of the ARE by performing luciferase reporter gene assays using PC12h cells transfected with ARE(GSTYa)-luciferase (Alam et al., J. Biol. Chem. 274:26071-26077, 1999) in the presence or absence of an Nrf2 dominant-negative (DN) or Keap1 expression vector.

A further experiment concerns PC12h cells. The experiment in a line: Oxidative glutamate toxicity in PC12h cells (MTT assay). It counts as cell-based.
The next experiment has as its system HO-1 and γ-GCS. The experiment in a line: Phase 2 enzyme induction in brain (RT-PCR). The format is in vivo, mouse. The settings on record: food containing 0.03% CA for a week. Here is the method:
RT-PCR. In order to examine phase 2 gene induction by CA in PC12h cells and brain lysates, RT-PCR of total RNA from cortical cultures was performed using the following primer pairs (Hosoya et al., J. Bioi. Chern. 29:27244-27250, 2005; Kobayashi et al., Mol. Cell. Biol. 26:221-229, 2006): CypA (89 bp), 5′-ACAGGTCCTGGCATCTTGTC-3′ (SEQ ID NO: 18)(sense) and 5′-[…] -3′ (SEQ ID NO: 19)(antisense); H0-1 (284 bp), 5′-CAGTCGCCTCCAGAGTTTCC -3′ (SEQ ID NO: 20)(sense) and 5′- TACAAGGAGGCCATCACCAGC-3′ (SEQ ID NO: 21)(antisense); GCL-M (280 bp), 5′- CTGCTAAACTGTTCATTGTAGG-3′ (SEQ ID NO: 22)(sense) and 5′- CTA TTG GGT TIT ACC TGT G-3′ (SEQ ID NO: 23)(antisense); GCL-C (213 bp), 5′- GTC TIC AGG TGA ACA TIC CAA GC-3′ (SEQ ID NO: 24)(sense) and 5′- TGTTCTTCAGGGGCTCCAGTC-3′ (SEQ 10 NO: 25)(antisense); and NQO1 (212 bp), 5′- GTG TAC AGC ATI GGC CAC AC-3′ (SEQ 10 NO: 26)(sense) and 5′AAATGATGGCCCACAGAAAG-3′ (SEQ ID NO: 27)(antisense).
Mice were allowed free access to food containing 0.03% CA for a week. Their brains were then removed, and extracts were prepared and measured for GSH and GSSG levels. Under these conditions, CA increased both total GSH+GSSG and the ratio of GSH/GSSG (FIG. 6). […] Therefore, we concluded that orally-administered CA could not only reach the brain but was also effective in activating potentially neuroprotective pathways.

A further experiment has as its system AP-1 binding site. Briefly: Enhancer element luciferase reporter p3xAP1luc. It counts as cell-based. The settings on record: NEPP11 2 μM. Here is the method: Because the E1 and E2 regions also contain other enhancer elements, we tested the effects of NEPP11 (2 μM) on the expression of luciferase activity derived from these elements, including the cAMP-responsive element (CRE; p3xCREluc), AP-1 binding site (p3xAP1luc), NF-κB binding site (p3xNF-κBluc), NFAT-binding site (p3xNFATluc), ETS-binding site (p3xETSluc), and MEF2-binding site (p3xMEF2luc).

The test system of another experiment is Nrf2-GFP fusion protein. Briefly: Localization of Nrf2-GFP fusion protein in transfected HT22 cells. The note with it: NEPP11 2 μM, 24 h. The format is cell-based. On the procedure: Activation of the Keap1/Nrf2 pathway by NEPP compounds in a neuronal cell line. Next, we examined the localization of an Nrf2-Green Fluorescent Protein (GFP) fusion protein (Numazawa et al., Am. J. Physiol. 285:C334-C342, 2003) in transfected HT22 cells. HT22 cells transfected with pNrf2-GFP were treated with vehicle or NEPP11 (2 μM) for 24 h and observed under epifluorescence microscopy. […] Thus we hypothesized that nuclear levels of Nrf2 protein should increase when cells are exposed to an electrophile such as NEPP, which promotes nuclear translocation. To test this hypothesis, cytosolic and nuclear fractions (200 μg protein) from cells that had been treated with vehicle or 2 μM NEPP11 for 24 h were precipitated and probed with anti-Nrf2 antibody and with anti-NeuN, a neuronal-specific nuclear protein. Indeed, we confirmed this hypothesis.

The subject of a further experiment is HO-1 promoter. The experiment in a line: HO-1 promoter luciferase reporter in cortical cultures. The format is cell-based, rat. On the procedure: Next, transcriptional activation of the HO-1 promoter by NEPP was examined by reporter gene assays in primary neurons. Cortical cultures were transfected with reporter cDNAs (1 μg per well), and 0.7 μM NEPP11 was added to the cultures. After a 24 h incubation, cell lysates were subjected to luciferase reporter assays. […] If the Keap1/Nrf2 pathway, indeed, mediates activation of the HO-1 promoter by NEPP11, mutant Nrf2 protein should inhibit this activation. […] Moreover, the selective activation in neurons may explain the relatively small amplitude of total HO-1 activation seen in the mixed neuronal/glial culture system in which glia predominate.

Take `CC(C)c1cc2c(c(O)c1O)[C@@]1(C(=O)O)CCCC(C)(C)[C@@H]1CC2` [CA, carnosic acid]: the “ARE activation with co-transfection of Nrf2-DN or Keap1” value in the experiment on ARE (PC12h cells, CA) is reported as “significantly repressed”. The “stimulation of ARE-based transcription” value in the experiment on ARE (PC12h cells, CA 10 μM) was over 10 fold. Also, the “ARE activation relative to sulforaphane” value with ARE (equimolar basis, 20 h) is listed as “to a much greater extent than sulforaphane”. Also, in the experiment on PC12h cells (CA), the “protective effects in PC12hD5D cells (Nrf2DN)” value was “significantly suppressed”. The “concentrations protecting PC12h cells against oxidative glutamate toxicity” value in the experiment on PC12h cells (dose-dependent, 5 mM glutamate 20 h, CA 1 h prior) lay in the range of 0.1 to 1 µM. Further, the “induction of phase 2 enzymes HO-1 and γ-GCS in brain” value with HO-1 and γ-GCS was “significant induction”.

On to `COC(=O)CCCCC/C=C1/C(=O)C=C[C@H]1CCCCCCc1ccc(C)cc1` [NEPP11], for which the “activity of p3xAP1luc” value in the experiment on AP-1 binding site is reported as “slightly depressed”. The “localization of Nrf2-GFP” value in the experiment on Nrf2-GFP fusion protein is “translocated into the nucleus”. The “activity of the HO-1 promoter” value in the experiment with HO-1 promoter (NEPP11 0.7 μM, 24 h) is listed as “significantly increased”. Also, in the experiment on HO-1 promoter (NEPP11, pNrf-GFP did not affect activation), the “HO-1 promoter activation with cotransfection of pNrf2(S40A)-GFP” value is “almost completely knocked down”.
